Laboratory results: BigSolDB 2.1

O=C(O)c1ccccc1
Details	solubility (mole fraction)
in 2-(2-butoxyethoxy)ethanol, 296.15 K	0.285
in 2-(2-butoxyethoxy)ethanol, 305.15 K	0.304
in 2-(2-butoxyethoxy)ethanol, 309.65 K	0.314
in 2-(2-butoxyethoxy)ethanol, 311.15 K	0.329
in 2-(2-butoxyethoxy)ethanol, 317.15 K	0.356
in 2-(2-butoxyethoxy)ethanol, 321.15 K	0.377
in 2-(2-butoxyethoxy)ethanol, 326.15 K	0.409
in 2-(2-butoxyethoxy)ethanol, 329.65 K	0.431
in 2-(2-butoxyethoxy)ethanol, 334.15 K	0.458
in 2-(2-butoxyethoxy)ethanol, 336.15 K	0.472
in DMAc, 288.65 K	0.469
in DMAc, 293.35 K	0.472
in DMAc, 302.15 K	0.475
in DMAc, 308.65 K	0.483
in DMAc, 311.65 K	0.489
in DMAc, 315.15 K	0.496
in DMAc, 318.15 K	0.505
in DMAc, 320.65 K	0.515
in DMAc, 324.15 K	0.529
in DMAc, 329.15 K	0.548
in cyclohexanone, 286.15 K	0.174
in cyclohexanone, 288.95 K	0.181
in cyclohexanone, 294.15 K	0.197
in cyclohexanone, 299.15 K	0.221
in cyclohexanone, 303.65 K	0.242
in cyclohexanone, 307.95 K	0.265
in cyclohexanone, 316.15 K	0.29
in cyclohexanone, 319.15 K	0.315
in cyclohexanone, 322.15 K	0.337
in cyclohexanone, 326.15 K	0.362
in decalin, 296.15 K	0.0147
in decalin, 301.15 K	0.0163
in decalin, 306.25 K	0.0196
in decalin, 311.05 K	0.0249
in decalin, 318.05 K	0.0355
in decalin, 325.15 K	0.0495
in decalin, 329.25 K	0.0589
in decalin, 332.55 K	0.0687
in decalin, 337.05 K	0.0887
in decalin, 338.65 K	0.103
in diethylene glycol, 294.15 K	0.0746
in diethylene glycol, 298.15 K	0.0995
in diethylene glycol, 302.35 K	0.131
in diethylene glycol, 305.15 K	0.148
in diethylene glycol, 309.35 K	0.183
in diethylene glycol, 314.65 K	0.225
in diethylene glycol, 319.95 K	0.269
in diethylene glycol, 324.15 K	0.3
in diethylene glycol, 327.95 K	0.336
in diethylene glycol, 332.25 K	0.367
in ethylene glycol, 291.65 K	0.0449
in ethylene glycol, 298.15 K	0.0539
in ethylene glycol, 300.95 K	0.0604
in ethylene glycol, 303.15 K	0.0689
in ethylene glycol, 306.65 K	0.0823
in ethylene glycol, 310.15 K	0.097
in ethylene glycol, 314.15 K	0.112
in ethylene glycol, 320.15 K	0.14
in ethylene glycol, 324.15 K	0.155
in ethylene glycol, 330.65 K	0.185
in m-xylene, 296.15 K	0.0649
in m-xylene, 302.15 K	0.0823
in m-xylene, 306.15 K	0.0928
in m-xylene, 312.65 K	0.117
in m-xylene, 315.15 K	0.129
in m-xylene, 320.15 K	0.154
in m-xylene, 323.15 K	0.173
in m-xylene, 330.65 K	0.22
in m-xylene, 334.15 K	0.246
in m-xylene, 336.15 K	0.257
in n-octane, 313.15 K	0.024
in n-octane, 322.35 K	0.033
in n-octane, 325.15 K	0.0365
in n-octane, 329.15 K	0.0448
in n-octane, 334.15 K	0.0578
in n-octane, 338.35 K	0.0718
in n-octane, 342.65 K	0.0865
in n-octane, 345.15 K	0.0955
in n-octane, 348.15 K	0.11
in n-octane, 354.15 K	0.134
in o-xylene, 297.15 K	0.0655
in o-xylene, 300.15 K	0.0735
in o-xylene, 303.15 K	0.0853
in o-xylene, 308.65 K	0.101
in o-xylene, 311.15 K	0.115
in o-xylene, 316.15 K	0.139
in o-xylene, 321.15 K	0.162
in o-xylene, 325.15 K	0.189
in o-xylene, 332.15 K	0.218
in o-xylene, 334.15 K	0.239
in p-xylene, 295.15 K	0.0628
in p-xylene, 299.65 K	0.0743
in p-xylene, 302.15 K	0.0819
in p-xylene, 307.15 K	0.0953
in p-xylene, 311.45 K	0.115
in p-xylene, 320.65 K	0.148
in p-xylene, 323.15 K	0.169
in p-xylene, 326.95 K	0.191
in p-xylene, 331.15 K	0.218
in p-xylene, 335.15 K	0.244
in propionic acid, 291.15 K	0.146
in propionic acid, 294.65 K	0.149
in propionic acid, 300.15 K	0.171
in propionic acid, 304.45 K	0.19
in propionic acid, 308.15 K	0.213
in propionic acid, 314.15 K	0.235
in propionic acid, 317.15 K	0.251
in propionic acid, 322.15 K	0.271
in propionic acid, 325.15 K	0.293
in propionic acid, 330.15 K	0.332
in sulfolane, 305.15 K	0.122
in sulfolane, 312.15 K	0.132
in sulfolane, 314.15 K	0.138
in sulfolane, 318.65 K	0.156
in sulfolane, 325.15 K	0.192
in sulfolane, 329.15 K	0.216
in sulfolane, 333.65 K	0.245
in sulfolane, 338.15 K	0.282
in sulfolane, 343.15 K	0.315
in sulfolane, 345.15 K	0.33
